Data published in PubChem BioAssay AID248 (DTP/NCI, 2004).
“And” between values parts separate entries of the source, which are not always exact repeats. Equal values may be shown once. Inconclusive results and toxic doses are left out.

Tested on: L1210 leukemia ip in BDF1 mice, survival T/C
Experiment: NCI In Vivo Anticancer Drug Screen. Data for tumor model L1210 Leukemia (intraperitoneal) in B6D2F1 (BDF1) mice
Conditions: endpoint: mean survival time, higher = longer survival
Summary of the method: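 Mice bearing the transplanted tumor received compound or vehicle. Survival of the treated group was divided by that of the vehicle-treated control group to give the ratio.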

[1] = dose: 25.0 mg/kg/injection, schedule: Q04DX002 (ip), vehicle: Klucel (hydroxypropylcellulose) (HPC)
[2] = dose: 50.0 mg/kg/injection, schedule: Q04DX002 (ip), vehicle: Klucel (hydroxypropylcellulose) (HPC)
[3] = dose: 100.0 mg/kg/injection, schedule: Q04DX002 (ip), vehicle: saline
[4] = dose: 200.0 mg/kg/injection, schedule: Q04DX002 (ip), vehicle: saline
[5] = dose: 400.0 mg/kg/injection, schedule: Q04DX002 (ip), vehicle: saline
[6] = dose: 200.0 mg/kg/injection, schedule: Q01DX001 (ip), vehicle: saline
[7] = dose: 400.0 mg/kg/injection, schedule: Q01DX001 (ip), vehicle: saline

Compound: CCCCC[P+](c1ccccc1)(c1ccccc1)c1ccccc1
- T/C (dose: 12.5 mg/kg/injection, schedule: Q04DX002 (ip), vehicle: Klucel (hydroxypropylcellulose) (HPC)): 109 % of control
- T/C [1]: 106 % of control
- T/C [2]: 109 % of control

Compound: O=C(O)c1cccc(NC(C(=O)c2ccccc2)c2ccccc2)c1 (stereo not given)
- T/C (dose: 50.0 mg/kg/injection, schedule: Q01DX001 (ip), vehicle: Klucel (hydroxypropylcellulose) (HPC)): 102 % of control
- T/C (dose: 100.0 mg/kg/injection, schedule: Q01DX001 (ip), vehicle: Klucel (hydroxypropylcellulose) (HPC)): 102 % of control
- T/C (dose: 200.0 mg/kg/injection, schedule: Q01DX001 (ip), vehicle: Klucel (hydroxypropylcellulose) (HPC)): 102 % of control

Compound: Cn1cc(C2=CC(=O)C=CC2=O)c2ccccc21
- T/C (dose: 5.0 mg/kg/injection, schedule: Q01DX001 (ip), vehicle: saline): 102 % of control
- T/C (dose: 10.0 mg/kg/injection, schedule: Q01DX001 (ip), vehicle: saline): 111 % of control
- T/C (dose: 20.0 mg/kg/injection, schedule: Q01DX001 (ip), vehicle: saline): 104 % of control
- T/C (dose: 40.0 mg/kg/injection, schedule: Q01DX001 (ip), vehicle: saline): 98 % of control

Compound: Cc1cc(-c2ccccc2O)nc(N)n1
- T/C [3]: 90 % of control
- T/C [4]: 94 % of control
- T/C [5]: 90 % of control

Compound: O=C1CN(CCN2CC(=O)NC2=S)C(=S)N1
- T/C (dose: 100.0 mg/kg/injection, schedule: Q04DX002 (ip), vehicle: saline with Tween-80): 95 % of control
- T/C (dose: 200.0 mg/kg/injection, schedule: Q04DX002 (ip), vehicle: saline with Tween-80): 100 % of control

Compound: O=C1NC(=O)C(c2ccc(Cl)cc2)N1 (stereo not given)
- T/C (dose: 50.0 mg/kg/injection, schedule: Q01DX001 (ip), vehicle: saline): 100 % of control
- T/C (dose: 100.0 mg/kg/injection, schedule: Q01DX001 (ip), vehicle: saline): 94 % of control
- T/C [6]: 97 % of control
- T/C [7]: 96 % of control

Compound: COc1ccc(C(C)=O)cc1OC
- T/C (dose: 100.0 mg/kg/injection, schedule: Q01DX009 (ip), vehicle: saline sonified): 92 % of control
- T/C (dose: 200.0 mg/kg/injection, schedule: Q01DX009 (ip), vehicle: saline sonified): 88 % of control
- T/C (dose: 400.0 mg/kg/injection, schedule: Q01DX009 (ip), vehicle: saline sonified): 100 % of control

Compound: CSc1ncc(Br)c(Sc2nc(N)nc3nc[nH]c23)n1
- T/C (dose: 0.25 mg/kg/injection, schedule: Q01DX Z (ip), vehicle: other): 107 % of control
- T/C (dose: 0.5 mg/kg/injection, schedule: Q01DX Z (ip), vehicle: other): 103 % of control
- T/C (dose: 1.0 mg/kg/injection, schedule: Q01DX Z (ip), vehicle: methylcellulose (MC)): 98 % of control
- T/C (dose: 1.0 mg/kg/injection, schedule: Q01DX Z (ip), vehicle: other): 103 % of control
- T/C (dose: 3.0 mg/kg/injection, schedule: Q01DX Z (ip), vehicle: carboxymethylcellulose (CMC)): 121 % of control
- T/C (dose: 3.0 mg/kg/injection, schedule: Q01DX Z (ip), vehicle: methylcellulose (MC)): 97 % of control
- T/C (dose: 6.0 mg/kg/injection, schedule: Q01DX Z (ip), vehicle: methylcellulose (MC)): 107 % of control
- T/C (dose: 10.0 mg/kg/injection, schedule: Q01DX001 (ip), vehicle: saline with Tween-80): 156 % of control
- T/C (dose: 12.0 mg/kg/injection, schedule: Q01DX001 (ip), vehicle: saline with Tween-80): 190 % of control
- T/C (dose: 12.0 mg/kg/injection, schedule: Q01DX Z (ip), vehicle: carboxymethylcellulose (CMC)): 158 % of control
- T/C (dose: 14.0 mg/kg/injection, schedule: Q01DX001 (ip), vehicle: saline with Tween-80): 200 % of control
- T/C (dose: 19.0 mg/kg/injection, schedule: Q01DX001 (ip), vehicle: saline with Tween-80): 162 % of control
- T/C (dose: 29.0 mg/kg/injection, schedule: Q01DX001 (ip), vehicle: saline): 244 % of control
- T/C (dose: 30.0 mg/kg/injection, schedule: Q01DX001 (ip), vehicle: saline with Tween-80): 162 % of control
- T/C (dose: 32.0 mg/kg/injection, schedule: Q01DX Z (ip), vehicle: other): 96 % of control
- T/C (dose: 33.5 mg/kg/injection, schedule: Q01DX Z (ip), vehicle: carboxymethylcellulose (CMC)): 107 % of control
- T/C (dose: 44.0 mg/kg/injection, schedule: Q01DX001 (ip), vehicle: saline with Tween-80): 164 % of control
- T/C (dose: 45.0 mg/kg/injection, schedule: Q01DX001 (ip), vehicle: saline): 236 % of control
- T/C (dose: 48.0 mg/kg/injection, schedule: Q01DX Z (ip), vehicle: carboxymethylcellulose (CMC)): 103 % of control
- T/C (dose: 50.0 mg/kg/injection, schedule: Q01DX001 (ip), vehicle: carboxymethylcellulose (CMC)): 158 % of control
- T/C (dose: 66.0 mg/kg/injection, schedule: Q01DX001 (ip), vehicle: saline): 101 % of control
- T/C (dose: 100.0 mg/kg/injection, schedule: Q01DX001 (ip), vehicle: saline with Tween-80): 104 % of control
- T/C (dose: 100.0 mg/kg/injection, schedule: Q01DX Z (ip), vehicle: methylcellulose (MC)): 91 % of control
- T/C (dose: 150.0 mg/kg/injection, schedule: Q01DX001 (ip), vehicle: saline with Tween-80): 120 % of control
- T/C (dose: 150.0 mg/kg/injection, schedule: Q01DX001 (ip), vehicle: saline): 105 % of control
- T/C (dose: 200.0 mg/kg/injection, schedule: Q01DX001 (ip), vehicle: carboxymethylcellulose (CMC)): 103 % of control
- T/C [6]: 122 % of control
- T/C (dose: 400.0 mg/kg/injection, schedule: Q01DX001 (ip), vehicle: carboxymethylcellulose (CMC)): 94 % of control
- T/C [7]: 99 % of control

Compound: C[N+]1=NN(c2nc[nH]c2C(N)=O)CC1
- T/C [3]: 96 % of control
- T/C [4]: 100 % of control
- T/C [5]: 115 % of control

Compound: CC(C)OB(OC(C)C)OC(C)C
- T/C (dose: 100.0 mg/kg/injection, schedule: Q01DX009 (ip), vehicle: Klucel (hydroxypropylcellulose) (HPC)): 103 % of control
- T/C (dose: 100.0 mg/kg/injection, schedule: Q04DX003 (ip), vehicle: Klucel (hydroxypropylcellulose) (HPC)): 104 % of control
- T/C (dose: 200.0 mg/kg/injection, schedule: Q01DX009 (ip), vehicle: Klucel (hydroxypropylcellulose) (HPC)): 103 % of control
- T/C (dose: 200.0 mg/kg/injection, schedule: Q04DX003 (ip), vehicle: Klucel (hydroxypropylcellulose) (HPC)): 95 % of control
- T/C (dose: 400.0 mg/kg/injection, schedule: Q01DX009 (ip), vehicle: Klucel (hydroxypropylcellulose) (HPC)): 102 % of control
- T/C (dose: 400.0 mg/kg/injection, schedule: Q04DX003 (ip), vehicle: Klucel (hydroxypropylcellulose) (HPC)): 100 % of control

Compound: c1cc2n(c1)Cc1cc3c(cc1NC2)OCO3
- T/C [1]: 90 % of control
- T/C [2]: 86 % of control
- T/C (dose: 100.0 mg/kg/injection, schedule: Q04DX002 (ip), vehicle: Klucel (hydroxypropylcellulose) (HPC)): 94 % of control

Compound: CC1(C)[C@H](C(=O)O)CC[C@]1(C)C(=O)O
- T/C (dose: 100.0 mg/kg/injection, schedule: Q01DX001 (ip), vehicle: other): 103 % of control
- T/C (dose: 200.0 mg/kg/injection, schedule: Q01DX001 (ip), vehicle: other): 103 % of control
- T/C (dose: 400.0 mg/kg/injection, schedule: Q01DX001 (ip), vehicle: other): 105 % of control

Compound: O=[N+]([O-])c1ccc(Nc2ccncc2)cc1
- T/C (dose: 100.0 mg/kg/injection, schedule: Q01DX009 (ip), vehicle: saline): 103 % of control
- T/C (dose: 100.0 mg/kg/injection, schedule: Q04DX003 (ip), vehicle: saline): 106 % of control
- T/C (dose: 200.0 mg/kg/injection, schedule: Q01DX009 (ip), vehicle: saline): 106 % of control
- T/C (dose: 200.0 mg/kg/injection, schedule: Q04DX003 (ip), vehicle: saline): 103 % of control
- T/C (dose: 400.0 mg/kg/injection, schedule: Q01DX009 (ip), vehicle: saline): 104 % of control
- T/C (dose: 400.0 mg/kg/injection, schedule: Q04DX003 (ip), vehicle: saline): 114 % of control

Compound: Cc1cc(C(=O)O)cc(C)c1NC(=O)N(CCCl)N=O
- T/C (dose: 46.0 mg/kg/injection, schedule: Q01DX001 (ip), vehicle: other): 91 % of control
- T/C (dose: 62.0 mg/kg/injection, schedule: Q01DX001 (ip), vehicle: other): 90 % of control

Compound: Nc1cc(Cl)ccc1NCCO
- T/C (dose: 33.0 mg/kg/injection, schedule: Q01DX009 (ip), vehicle: saline): 101 % of control
- T/C (dose: 66.0 mg/kg/injection, schedule: Q01DX009 (ip), vehicle: saline): 86 % of control
- T/C (dose: 132.0 mg/kg/injection, schedule: Q01DX001 (ip), vehicle: saline): 97 % of control and 111 % of control
- T/C (dose: 132.0 mg/kg/injection, schedule: Q04DX003 (ip), vehicle: acetone): 97 % of control
- T/C [6]: 97 % of control and 105 % of control
- T/C (dose: 300.0 mg/kg/injection, schedule: Q01DX001 (ip), vehicle: saline): 100 % of control and 105 % of control
